Data set [1] concerns cancer patients. The conditions noted are these: cancer patients no longer responsive to conventional therapies; cited from earlier work.
For data set [2], the system named is patients with pulmonary sarcoidosis. Briefly: Four-month oral melatonin treatment of patients with pulmonary sarcoidosis. It is filed as in vivo. As for the experimental part:
(§1) Treatment with melatonin was administered to ambulant patients with various forms of systemic scleroderma, in various stages of the disease, and to patients with sarcoidosis.
(§2) The patients and methods were as follows:
(§3) Ten patients with systemic scleroderma in an active phase and four patients with pulmonary sarcoidosis were selected.
The diagnosis was made on the basis of histological tests performed on biopsy samples, the BAL for the T-lymphocyte count and scintigraphy with gallium-67. Overall lung function tests, a chest X-ray and numerous laboratory tests (ACE, blood calcium, urinary calcium, ESR, etc.) were also performed.
The effects of the treatment were evaluated monthly on the basis of any changes in lung function and ACE levels and at the end of the four-month period on the basis of any changes in the radiological findings.
(§4) When the clinical evaluation had been completed and after all the laboratory tests had been performed, the patients with systemic scleroderma and sarcoidosis received in a daily dose of 20 mg taken by mouth as a single dose between 18.00 and 20.00 hours. This timing was chosen with the aim of interfering as little as possible with the circadian rhythm of endogenous melatonin secretion.
(§5) The other patients with systemic scleroderma and those with sarcoidosis received only melatonin.

In data set [3] the test system is patients with systemic scleroderma. It is filed as in vivo. The method, then:
as §1, §2, §3
The clinical characteristics of the patients with systemic scleroderma and the level of activity and severity of the disease were assessed with the aid of a skin score (cf. annexe) and information obtained from lung function tests, a chest X-ray, pulmonary CAT and numerous laboratory tests (antinuclear antibodies (A), A to the extractable nuclear antigen Scl-70, antinucleolar A, anti-DNA A, antimicrosome A, anticentromeric A, ESR, ACE, CRP, gamma globulins).
To assess the effects of the treatment, the skin-score, ESR, ACE, CRP were determined monthly, the lung function tests were performed every 2 months, and chest X-ray and/or thoracic CAT carried out at the end of a 4-month course of treatment.
as §4
The clinical investigations and laboratory tests performed at the start of the combined treatment therefore served both as a control on the treatment with hydroxychloroquine and to provide the base values for the tests performed during the treatment with melatonin.
as §5

For data set [4], the system named is patients with Parkinson's disease. Conditions: cited from earlier work.
[5] abbreviates: 20 mg melatonin per day for four months.

On to `COc1ccc2[nH]cc(CCNC(C)=O)c2c1` [melatonin, 5-methoxy-N-acetyltryptamine], for which the “patients' general condition and disease course” value in data set [1] was “the patients' general condition showed improvement and the disease was temporarily stabilized”. The “radiological investigation (changes affecting the hilum and the pulmonary parenchyma)” value in data set [2] (end of the four-month course) is reported as “definitive reduction”. Moreover, the lung function tests entry in data set [2] (end of the four-month course, four patients) was “the findings in three patients had returned to normal and the fourth patient showed marked improvement”. Also, the “fall of BAL lymphocyte count” value in data set [2] (end of the four-month course, on average) was found to be 70%. Besides, the ACE result in data set [2] (monthly determination, 20 mg per day, all cases (FIG.2)) is listed as “the values gradually returned to normal”. In addition, in data set [3] (setting [5]), the “CRP or gamma globulin values” is reported as “No significant changes” and the subjective respiratory disturbances entry was “marked subjective reduction”. Also, the lung function tests entry in data set [3] (20 mg melatonin per day for four months, ten patients) is reported as “significant improvement in nine of the ten patients”. Moreover, in data set [3] (20 mg melatonin per day for four months, ten patients (FIG.1)), the skin score entry was “highly positive results”. In addition, the “chest X-ray” value in data set [3] (after 4 months of treatment, all patients) is “No significant changes were found in any of the patients”. Further, in data set [3] (throughout the course of treatment, 20 mg per day), the ESR result was “It was not possible to demonstrate that the hormone treatment had an effect on this parameter”. Moreover, the demonstrable advantages entry in data set [4] (daily doses of up to 6 g) is recorded as “no demonstrable advantages”. The adverse effects result in data set [4] (human, in vivo) is given as “no adverse effects”.

The values above are taken from patent EP0605371A1 (priority 1992, dated 1994).
